Measurements taken from patent US9429582B2, “Tyrosine-phosphorylated WBP2, a novel cancer target and biomarker” (National University of Singapore, priority 2010, dated 2016).

Experiments:
Type in all cases: cell-based, human
WBP2 = test: Immunoblot of WBP2 expression in drug-treated WBP2-Y192-231E mutant-expressing MCF7; settings: Y192-231E-expressing MCF7; 15 μM FH535; day 2-4 post-treatment
Protocol: A: Whole cell lysates from vector, WBP2-WT, WBP2-Y192-231E mutant and WBP2-Y192-231F mutant expressing MCF7 or Y192-231E mutant expressing MCF7 with WBP2 knockdown were used for IB analysis with antibodies indicated. B: Vector, WBP2-WT, WBP2-Y192-231E mutant or WBP2-Y192-231F mutant-expressing MCF7 were co-transfected with TOPFlash (top panel) or ERE-Luciferase (bottom panel) reporter construct. For cells co-transfected ERE-luciferase, they were either left alone or stimulated with 50 ng/ml Wnt3a ligand for 16 hrs. TCF/ERα luciferase activities in various conditions were then assayed. **P<0.01, ***P<0.001, Student's t-test (2-tailed). […] Cell numbers were measured. […]
Whole cell lysates from vector, WBP2-WT, WBP2-Y192-231E mutant and WBP2-Y192-231F mutant expressing MCF7 (A) or Y192-231E mutant expressing MCF7 with WBP2 knockdown (B) were used for IB analysis with antibodies indicated. Their expression levels were quantified in three independent experiments and the averages were presented relative to actin. […] TCF(C)/ER[…](D) luciferase activities in various conditions were then assayed and analyzed in relative to untreated vector control. **P<0.01, ***P<0.001, Student's t-test (2-tailed). […] Cell numbers were measured daily and compared in relative to vehicle treated vector-expressing cells on Day 0. […] Cell numbers were measured and compared in relative to vehicle-treated cells. […]

TCF/β-catenin signaling = test: TCF reporter activity / β-catenin recruitment in Y192-231E-expressing MCF7; settings: preliminary study, data not shown
Protocol: The Dual-Luciferase TM reporter assay system (Promega) was used for sequential measurement of Firefly and Renilla luciferase activities according to manufacturer's instructions. Quantification of luciferase activities were carried out using a luminometer (Sirius).
The Dual-Luciferase TM reporter assay system (Promega) was used for sequential measurement of Firefly and Renilla luciferase activities according to manufacturer's instructions. Quantification of luciferase activities were carried out using a luminometer (Sirius, Berthold-DS Inc, Germany). Briefly, transfected cells in 24-well plate were rinsed once with ice-cold PBS and lysed in 1× Passive Lysis Buffer (PLB) for 15 min at RT. The crude lysate was first incubated with Luciferase Assay Substrate (LAR II) to measure the firefly luciferase activity, followed by incubation with Stop and Glo Substrate to measure the Renilla luciferase activity.
Next, we examined the relative contributions of ERα and Wnt pathway to WBP2-mediated cellular proliferation. […] Even at higher doses of up to 2000 nM, retardation of proliferation by Tamoxifen of Y192-231E-expressing cells remains unremarkable. FH535 is a recently identified small-molecule inhibitor of TCF/β-catenin signaling (31). […] No synergistic effect could be observed when Tamoxifen and FH535 were administered in combination.

vector-expressing MCF7 = test: Cell proliferation (MTS / cell numbers) of vector-expressing MCF7
Protocol: A: Whole cell lysates from vector, WBP2-WT, WBP2-Y192-231E mutant and WBP2-Y192-231F mutant expressing MCF7 or Y192-231E mutant expressing MCF7 with WBP2 knockdown were used for IB analysis with antibodies indicated. B: Vector, WBP2-WT, WBP2-Y192-231E mutant or WBP2-Y192-231F mutant-expressing MCF7 were co-transfected with TOPFlash (top panel) or ERE-Luciferase (bottom panel) reporter construct. For cells co-transfected ERE-luciferase, they were either left alone or stimulated with 50 ng/ml Wnt3a ligand for 16 hrs. TCF/ERα luciferase activities in various conditions were then assayed. **P<0.01, ***P<0.001, Student's t-test (2-tailed). C: Vector or WBP2-Y192-231E mutant-expressing MCF7 were treated with indicated concentrations of Tamoxifen(Tam) and/or FH535. Cell numbers were measured. D: Whole cell lysates from WBP2-Y192-231E mutant-expressing MCF7 treated with 2 μM Tam and/or 15 μM FH5353 were harvested at day 2-4 post-treatment and used for IB analysis with antibodies indicated.
Whole cell lysates from vector, WBP2-WT, WBP2-Y192-231E mutant and WBP2-Y192-231F mutant expressing MCF7 (A) or Y192-231E mutant expressing MCF7 with WBP2 knockdown (B) were used for IB analysis with antibodies indicated. Their expression levels were quantified in three independent experiments and the averages were presented relative to actin. Representative blots (order in lanes from left to right: vector, WBP2, Y192-231E, Y192F) were presented as insets to the bar graphs. **P<0.01, ***P<0.001, Student's t-test (2-tailed) relative to vector. […] TCF(C)/ER[…](D) luciferase activities in various conditions were then assayed and analyzed in relative to untreated vector control. **P<0.01, ***P<0.001, Student's t-test (2-tailed). […] Cell numbers were measured daily and compared in relative to vehicle treated vector-expressing cells on Day 0. […] Cell numbers were measured and compared in relative to vehicle-treated cells. Their […] were analyzed statistically with SPSS 13.0. […] Cell numbers were measured on day 2 and day 4 and compared in relative to vehicle-treated control at each day (Top Panel). […]

## Cc1cc([N+](=O)[O-])ccc1NS(=O)(=O)c1cc(Cl)ccc1Cl [FH535]
WBP2
  WBP2 expression: without affecting
TCF/β-catenin signaling; 24-hr post-treatment with 15 μM FH535 in Y192-231E-expressing MCF7
  TCF activity reduced: 50%
TCF/β-catenin signaling
  recruitment of β-catenin: inhibits
vector-expressing MCF7; MCF7 cells expressing vector, day 4, 100 nM fulvestrant or 15 μM FH535
  inhibition of growth / reduction of proliferation: about 30%
vector-expressing MCF7; vector stable transfectant, 0-50 μM FH535 for 2 days
  growth inhibition, dose dependence: dose dependent growth inhibition
